The results in this text go back to patent US8822449B2, “Substituted aminoindanes and analogs thereof, and the pharmaceutical use thereof” (Sanofi, priority 2008, dated 2014).

Molecules are shown by their SMILES. A value given as a limit tells only on which side of the number the result lay.

The target of one test is T1, sodium-proton exchanger of subtype 3 (NHE3) (Homo sapiens, UniProt P48764).
T1 construct: expressed in transfected cells
T1 sequence (P48764 26-834): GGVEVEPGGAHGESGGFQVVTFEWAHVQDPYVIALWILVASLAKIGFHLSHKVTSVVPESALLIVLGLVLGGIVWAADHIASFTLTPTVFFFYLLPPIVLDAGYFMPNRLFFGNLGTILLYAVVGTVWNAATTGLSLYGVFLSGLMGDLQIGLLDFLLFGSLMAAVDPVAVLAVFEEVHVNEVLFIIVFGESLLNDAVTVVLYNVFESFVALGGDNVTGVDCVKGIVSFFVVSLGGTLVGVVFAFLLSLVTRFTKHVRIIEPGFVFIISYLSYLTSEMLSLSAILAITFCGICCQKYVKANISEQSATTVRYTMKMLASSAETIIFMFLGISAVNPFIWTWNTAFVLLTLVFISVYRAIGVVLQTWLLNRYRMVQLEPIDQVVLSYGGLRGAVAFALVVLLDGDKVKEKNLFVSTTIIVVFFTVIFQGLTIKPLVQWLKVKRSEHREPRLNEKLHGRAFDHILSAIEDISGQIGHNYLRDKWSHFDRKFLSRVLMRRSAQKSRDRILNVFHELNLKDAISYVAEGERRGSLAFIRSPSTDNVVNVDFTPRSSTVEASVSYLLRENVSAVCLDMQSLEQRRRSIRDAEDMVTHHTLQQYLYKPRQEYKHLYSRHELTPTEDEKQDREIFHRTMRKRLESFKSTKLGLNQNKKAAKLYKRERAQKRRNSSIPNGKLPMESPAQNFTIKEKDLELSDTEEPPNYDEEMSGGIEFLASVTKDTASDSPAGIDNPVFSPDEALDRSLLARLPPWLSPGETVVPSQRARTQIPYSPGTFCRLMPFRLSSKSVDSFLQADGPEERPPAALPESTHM
In words: Recovery of intracellular pH (pHi) after acidification in LAP1 cells stably expressing NHE3 (BCECF fluorescence, FLIPR). Format: cell-based. Conditions: Activity range (inhibitory effect on NHE3), LAP1 cells stably expressing NHE3; pH recovery after acidification; range 1 is % inhibition at 10 μM.
The molecule `Clc1cc(Cl)c2c(c1)[C@H](Oc1ccc(-n3cncn3)cc1)[C@@H](N1C[C@H]3CC[C@@H](C1)N3)C2` [Example 2, 3-[trans-(1S,2S)-4,6-dichloro-1-(4-[1,2,4]triazol-1-ylphenoxy)indan-2-yl]-3,8-diazabicyclo[3.2.1]octane] registered an IC50 of 1000 to 10000 nM.

The same test, now with this note: LAP1 cells stably expressing NHE3; pH recovery after acidification; range 1 is % inhibition at 10 μM; read-out: Activity range (inhibitory effect on NHE3).
As for `CS(=O)(=O)c1ccc(O[C@H]2c3cc(Cl)cc(Cl)c3C[C@@H]2N2CCN(C3CC3)CC2)cc1` [Example 351, 1-Cyclopropyl-4-[trans-(1S,2S)-4,6-dichloro-1-(4-methanesulfonylphenoxy)indan-2-yl]piperazine], the inhibition at 10 µM was 20 to 50%.

Regarding `CN(C)S(=O)(=O)c1cc(Cl)c(O[C@H]2c3ccccc3C[C@@H]2N2CCCC2)c(Cl)c1` (racemic) [Example 403, 3,5-dichloro-N,N-dimethyl-4-(rac-trans-(1,2)-2-pyrrolidin-1-ylindan-1-yloxy)benzenesulfonamide], the IC50 lay in the range of 1000 to 10000 nM.

For the molecule `CS(=O)(=O)c1ccc(O[C@H]2c3cc(Cl)cc(F)c3C[C@@H]2N2CCCC2)cc1` (racemic) [Example 293, 1-[rac-trans-(1,2)-6-chloro-4-fluoro-1-(4-methanesulfonylphenoxy)indan-2-yl]pyrrolidine], the IC50 was 1000 to 10000 nM.

For the molecule `CS(=O)(=O)c1nccn1-c1ccc(O[C@H]2c3cc(Cl)cc(Cl)c3C[C@@H]2N2CC[C@@H](O)C2)c(F)c1` [Example 739, (R)-1-{trans-(1S,2S)-4,6-Dichloro-1-[2-fluoro-4-(2-methanesulfonyl-imidazol-1-yl)-phenoxy]-indan-2-yl}-pyrrolidin-3-ol], the IC50 was below 1000 nM.

Take `Cc1ccc(O[C@H]2c3ccccc3C[C@@H]2N2CCCC2)c(-c2c(C)noc2C)c1` [Example 408, 3,5-dimethyl-4-[5-methyl-2-(trans-(1S,2S)-2-pyrrolidin-1-ylindan-1-yloxy)phenyl]isoxazole]: the inhibition at 10 µM is 20 to 50%.

As for `CN1CCN(c2ccc(O[C@H]3c4cc(Cl)cc(Cl)c4C[C@@H]3N3CC[C@@H](O)C3)cc2)C1=O` [Example 332, 1-{4-[trans-(1S,2S)-4,6-dichloro-2-((R)-3-hydroxypyrrolidin-1-yl)indan-1-yloxy]phenyl}-3-methylimidazolidin-2-one], the IC50 was 1000 to 10000 nM.

`N#Cc1ccc(O[C@@H]2c3ccccc3C[C@H]2N2C[C@H]3CNC[C@H]3C2)c(Cl)c1` (racemic) [Example 445, 3-chloro-4-[rac-trans-(1,2)-2-(hexahydropyrrolo[3,4-c]pyrrol-2-yl)indan-1-yloxy]benzonitrile]: the IC50 is below 1000 nM.

Regarding `N[C@@H]1CCCN([C@H]2CCc3ccccc3[C@@H]2Oc2ccc(Cl)cc2)C1` (racemic) [Example 66, (R)-1-[rac-trans-(1,2)-1-(4-chlorophenoxy)-1,2,3,4-tetrahydronaphthalen-2-yl]piperidin-3-ylamine], the inhibition at 10 µM lay within 20 to 50%.

Turning to `CS(=O)(=O)c1ccc(O[C@H]2c3ccccc3C[C@@H]2NC2CCCC2)cc1` (racemic) [Example 623, Cyclopentyl-[1-(4-methanesulfonylphenoxy)indan-2-yl]amine], the IC50 lay in the range of 1000 to 10000 nM.

For `O=S(=O)(c1ccc(O[C@H]2c3cc(Cl)cc(Cl)c3C[C@@H]2N2CC[C@@H](O)C2)cc1)N1CCOCC1` [Example 744, (R)-1-{trans-(1S,2S)-4,6-Dichloro-1-[4-(morpholine-4-sulfonyl)-phenoxy]-indan-2-yl}-pyrrolidin-3-ol], the IC50 fell in the range of 1000 to 10000 nM.

As to `CCOc1cccc(O[C@@H]2c3ccccc3C[C@H]2N2CCC(CN)CC2)c1` (racemic) [Example 614, C-{1-[rac-trans-(1,2)-1-(3-ethoxyphenoxy)indan-2-yl]piperidin-4-yl}methylamine], the IC50 lay within 1000 to 10000 nM.

As to `CC(=O)Nc1cccc(O[C@H]2c3cc(Cl)cc(Cl)c3C[C@@H]2N2CCC[C@@H](N(C)C)C2)c1` [Example 694, N-{3-[trans-(1S,2S)-4,6-dichloro-2-((R)-3-dimethylaminopiperidin-1-yl)indan-1-yloxy]phenyl}acetamide], the IC50 was below 1000 nM.
